Data as given in patent US11479533B2, “Inhibitors of Rho associated coiled-coil containing protein kinase” (KADMON CORPORATION, LLC, priority 2017, dated 2022).

Tests used:
[1] = tested on: ppMlc (T18/S19) levels in A7R5 cells; assay: A7R5 in-cell ELISA assay (ppMlc); type: cell-based, rat; conditions: Rattus norvegicus, A7R5, A7R5 cells, Table 2; read-out: pMLC IC50 (nM) A7R5
Experimental: Determination of compounds ROCK inhibitory activity in A7R5 cells: rat aortic smooth muscle cell line A7R5 cells were maintained and treated in DMEM medium with 10% of fetal bovine serum. Cells were seeded with density of 5,000 cells/well in 96-well plates for 24 hours and subsequently treated 90 min with testing compounds. Cells were then fixed and processed according to the In-Cell ELISA Colorimetric Detection Kit manual (Thermo Scientific).
A7R5 cells were treated with 9 points 2 fold serial dilution of compounds and ppMlc (T18/S19) levels were determined in order to calculate the cellular IC50s of the compounds.
An A7R5 in-cell ELISA assay was performed to determine ROCK inhibition of test articles. A7R5 cells were treated with 9 points 2-fold serial dilution of compounds and ppMlc (T18/S19) levels were determined to calculate cellular IC50 values of the compounds. […] A7R5 cells were treated with 9 points 2-fold serial dilution of compounds and ppMlc (T18/S19) levels were determined to calculate cellular IC50 values of the compounds using the nonlinear regression curve fit function of the GraphPad Prism software.

[2] = tested on: ACTA2-promoter-driven-luciferase in NIH3T3 cells; assay: NIH3T3 Acta2-promoter driven-luciferase assay; type: cell-based; conditions: Mus musculus, plus TGFβ1, 24 hr, read-out: NIH3T3, Acta2-luc, IC50
Experimental: NIH3T3 cells Acta2-promoter driven-luciferase assay: A NIH3T3 cell line stably expressing a luciferase reporter driven by the human ACTA2 gene promoter (−1000-1 bp) was established (NIH3T3-Acta2-luciferase). The cells were plated to confluence and treated with the test compounds plus TGFβ1 for 24 hr. Cells were then lysed and luciferase activity was measured using the LightSwitch luciferase kit from Active Motif.
ROCK inhibitors can be effectively rank ordered by ACTA2-promoter-driven-luciferase reporter cell assay. NIH3T3 cells stably expressing ACTA2-promoter-driven-luciferase were applied to measure ROCK compounds functional IC50's in cells. Cells were plated in 96 well plates to confluence and treated with 9 points serial dilution of compounds in combination with TGFβ1 for 24 hr. Luciferase activities were measured and compound's IC50's were calculated using the nonlinear regression curve fit function of the GraphPad Prism software. Compounds of the invention gave in cell IC50's under 200 nM, see FIG. 1c.

[3] = molecular target: recombinant ROCK2 (amino acids 1-552) (Homo sapiens (Human), UniProt O75116); assay: Z'-lyte kinase assay, ROCK2; type: biochemical
recombinant ROCK2 (amino acids 1-552), sequence (O75116 1-552): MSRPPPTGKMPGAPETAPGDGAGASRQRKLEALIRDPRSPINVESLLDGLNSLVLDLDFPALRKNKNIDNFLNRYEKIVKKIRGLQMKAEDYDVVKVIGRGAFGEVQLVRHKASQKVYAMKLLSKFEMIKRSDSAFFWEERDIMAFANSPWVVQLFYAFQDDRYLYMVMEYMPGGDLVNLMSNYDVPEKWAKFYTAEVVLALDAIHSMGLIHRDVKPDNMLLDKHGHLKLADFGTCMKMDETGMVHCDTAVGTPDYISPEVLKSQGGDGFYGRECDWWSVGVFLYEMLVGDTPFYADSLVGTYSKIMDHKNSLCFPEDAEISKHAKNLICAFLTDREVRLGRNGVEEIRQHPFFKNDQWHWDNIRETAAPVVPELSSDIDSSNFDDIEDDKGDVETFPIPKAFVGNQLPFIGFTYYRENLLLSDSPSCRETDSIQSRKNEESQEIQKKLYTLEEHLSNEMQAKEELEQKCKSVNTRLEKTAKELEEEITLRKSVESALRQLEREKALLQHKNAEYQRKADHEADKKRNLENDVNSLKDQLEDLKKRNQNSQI
Experimental: Determination of compounds ROCK inhibitory activity in vitro (Z'lyte assay): recombinant ROCK1 (amino acids 1-535) and ROCK2 (amino acids 1-552) proteins were purchased from ThermoFisher Scientific. Compounds activities were measured by Z'-lyte kinase kit (ThermoFisher Scientific) and IC50s were calculated.
Compounds activities were measured by Z'-lyte kinase kit (ThermoFisher Scientific). […] IC50s were calculated using the GraphPad Prism software with kinase activities data that were collected from 9 points serial dilution of compounds treatment. The ROCK inhibition in A7R5 cells and NIH3T3 (Acta2-Luc) cells was performed as described above.
The percent inhibition rate was calculated by normalizing the kinase activity value obtained with compound treatment against DMSO control value and then applied to the equation, […]. IC50's were calculated using the nonlinear regression curve fit function of the GraphPad Prism software with kinase activities data measured with 9 points 2-fold serial dilution of compounds treatment.

Row | IC50 [1] | IC50 [3] | inhibition at 0.5 µM ([3]; @ 0.5 μM, read-out: ROCK2 % inh (0.5 μM)) | SMILES | IC50 [2]
1 | 222 nM | 12 nM | – | CN[C@@H](C(=O)Nc1ccc(-c2cn[nH]c2)cc1)c1cccc(OC)c1 [Example 3, (R)—N-(4-(1H-pyrazol-4-yl)phenyl)-2-(3-methoxyphenyl)-2-(methylamino)acetamide] | 157 nM
2 | 1670 nM | 16 nM | – | COc1cccc(C(NCC(=O)N(C)C)C(=O)Nc2ccc(-c3cn[nH]c3)cc2)c1 (stereo not drawn) [Example 39, N-(4-(1H-pyrazol-4-yl)phenyl)-2-((2-(dimethylamino)-2-oxoethyl)amino)-2-(3-methoxyphenyl)acetamide] | > 5000 nM
3 | 169 nM | 8.9 nM | – | CCNC(C(=O)Nc1ccc(-c2cn[nH]c2)cc1)c1ccc(Cl)cc1 (stereo not drawn) [Example 22, N-(4-(1H-pyrazol-4-yl)phenyl)-2-(4-chlorophenyl)-2-(ethylamino)acetamide] | 155 nM
4 | 255 nM | 21 nM | – | CCNC(C(=O)Nc1ccc(-c2cn[nH]c2)cc1)c1ccc(OC)cc1 (stereo not drawn) [Example 10, N-(4-(1H-pyrazol-4-yl)phenyl)-2-(ethylamino)-2-(4-methoxyphenyl)acetamide] | 1280 nM
5 | 106 nM | 17 nM | – | COc1cccc(C(NCCN2CCCC2)C(=O)Nc2ccc(-c3cn[nH]c3)cc2)c1 (stereo not drawn) [Example 52, N-(4-(1H-pyrazol-4-yl)phenyl)-2-(3-methoxyphenyl)-2-((2-(pyrrolidin-1-yl)ethyl)amino)acetamide] | 675 nM
6 | > 5000 nM | 31 nM | – | CNC(C(=O)Nc1ccc(-c2cn[nH]c2)cc1)c1cccc(C(=O)O)c1 (stereo not drawn) [Example 32, 3-(2-((4-(1H-pyrazol-4-yl)phenyl)amino)-1-(methylamino)-2-oxoethyl)benzoic acid] | > 5000 nM
7 | 152 nM | 5.3 nM | – | CNCCNC(C(=O)Nc1ccc(-c2cn[nH]c2)cc1)c1cccc(OC)c1 (stereo not drawn) [Example 26, N-(4-(1H-pyrazol-4-yl)phenyl)-2-(3-methoxyphenyl)-2-((2-(methylamino)ethyl)amino)acetamide] | 251 nM
8 | > 5000 nM | 400 nM | – | CNC(=O)c1ccc(C(NC)C(=O)Nc2ccc(-c3cn[nH]c3)cc2)cc1 (stereo not drawn) [Example 69, 4-(2-((4-(1H-pyrazol-4-yl)phenyl)amino)-1-(methylamino)-2-oxoethyl)-N-methylbenzamide] | > 5000 nM
9 | 947 nM | 82 nM | – | CNC(C(=O)Nc1ccc(-c2cn[nH]c2)cc1)c1cccc(N(C)C)c1 (stereo not drawn) [Example 28, N-(4-(1H-pyrazol-4-yl)phenyl)-2-(3-(dimethylamino)phenyl)-2-(methylamino)acetamide] | 335 nM
10 | 1360 nM | 53 nM | – | COc1cccc(C(NCc2cn[nH]c2)C(=O)Nc2ccc(-c3cn[nH]c3)cc2)c1 (stereo not drawn) [Example 45, 2-(((1H-pyrazol-4-yl)methyl)amino)-N-(4-(1H-pyrazol-4-yl)phenyl)-2-(3-methoxyphenyl)acetamide] | 1460 nM
11 | 425 nM | 6.3 nM | – | CCNC(C(=O)Nc1ccc(-c2cn[nH]c2)cc1)c1cccc(OC)c1 (stereo not drawn) [Example 13, N-(4-(1H-pyrazol-4-yl)phenyl)-2-(ethylamino)-2-(3-methoxyphenyl)acetamide] | 1570 nM
12 | 632 nM | 45 nM | – | COc1cccc(C(NCCOC(C)C)C(=O)Nc2ccc(-c3cn[nH]c3)cc2)c1 (stereo not drawn) [Example 40, N-(4-(1H-pyrazol-4-yl)phenyl)-2-((2-isopropoxyethyl)amino)-2-(3-methoxyphenyl)acetamide] | 826 nM
13 | 292 nM | 3.5 nM | – | CCNC(C(=O)Nc1ccc(-c2cn[nH]c2)cc1)c1cccc(Cl)c1 (stereo not drawn) [Example 16, N-(4-(1H-pyrazol-4-yl)phenyl)-2-(3-chlorophenyl)-2-(ethylamino)acetamide] | 376 nM
14 | 382 nM | 46 nM | – | CN[C@@H](C(=O)Nc1cc(F)c(-c2cn[nH]c2)cc1OCCN(C)C)c1cccc(OC)c1 [Example 72, (R)—N-(2-(2-(dimethylamino)ethoxy)-5-fluoro-4-(1H-pyrazol-4-yl)phenyl)-2-(3-methoxyphenyl)-2-(methylamino)acetamide] | 984 nM
15 | 667 nM | 55 nM | – | CNC(C(=O)Nc1ccc(-c2cn[nH]c2)cc1)c1ccc(N(C)C)cc1 (stereo not drawn) [Example 31, N-(4-(1H-pyrazol-4-yl)phenyl)-2-(4-(dimethylamino)phenyl)-2-(methylamino)acetamide] | 1230 nM
16 | 269 nM | 1.9 nM | – | CNC(=O)c1cccc(C(NC)C(=O)Nc2ccc(-c3cn[nH]c3)cc2)c1 (stereo not drawn) [Example 67, 3-(2-((4-(1H-pyrazol-4-yl)phenyl)amino)-1-(methylamino)-2-oxoethyl)-N-methylbenzamide] | 296 nM
17 | 15 nM | 1.6 nM | – | CN[C@H](C(=O)Nc1cc(F)c(-c2cn[nH]c2)cc1OCCN(C)C)c1cccc(OC)c1 [Example 73, (S)—N-(2-(2-(dimethylamino)ethoxy)-5-fluoro-4-(1H-pyrazol-4-yl)phenyl)-2-(3-methoxyphenyl)-2-(methylamino)acetamide] | 122 nM
18 | 1520 nM | 68 nM | – | COc1cccc(C(NCCOCC(F)(F)F)C(=O)Nc2ccc(-c3cn[nH]c3)cc2)c1 (stereo not drawn) [Example 54, N-(4-(1H-pyrazol-4-yl)phenyl)-2-(3-methoxyphenyl)-2-((2-(2,2,2-trifluoroethoxy)ethyl)amino)acetamide] | 2670 nM
19 | 247 nM | 18 nM | – | CNC(C(=O)Nc1ccc(-c2cn[nH]c2)cc1)c1cccc(C(=O)OC)c1 (stereo not drawn) [Example 30, Methyl 3-(2-((4-(1H-pyrazol-4-yl)phenyl)amino)-1-(methylamino)-2-oxoethyl)benzoate] | > 5000 nM
20 | 69 nM | 4 nM | – | CCNC(C(=O)Nc1ccc(-c2cn[nH]c2)cc1)c1ccc(C)cc1 (stereo not drawn) [Example 11, N-(4-(1H-pyrazol-4-yl)phenyl)-2-(ethylamino)-2-(p-tolyl)acetamide] | 106 nM
21 | 47 nM | 3.1 nM | – | CNC(C(=O)Nc1ccc(-c2cn[nH]c2)cc1)c1ccc(C)cc1 (stereo not drawn) [Example 21, N-(4-(1H-pyrazol-4-yl)phenyl)-2-(methylamino)-2-(p-tolyl)acetamide] | 66 nM
22 | 435 nM | – | 91% | CNC(C(=O)Nc1ccc(-c2cn[nH]c2)cc1)c1ccc(OC)c(F)c1 (stereo not drawn) [Example 23, N-(4-(1H-pyrazol-4-yl)phenyl)-2-(3-fluoro-4-methoxyphenyl)-2-(methylamino)acetamide] | 252 nM
23 | 1250 nM | 12 nM | – | COc1cccc(C(NCC(N)=O)C(=O)Nc2ccc(-c3cn[nH]c3)cc2)c1 (stereo not drawn) [Example 41, N-(4-(1H-pyrazol-4-yl)phenyl)-2-((2-amino-2-oxoethyl)amino)-2-(3-methoxyphenyl)acetamide] | > 5000 nM
24 | 115 nM | 5.3 nM | – | COCCNC(C(=O)Nc1ccc(-c2cn[nH]c2)c(OC)c1)c1cccc(OC)c1 (stereo not drawn) [Example 56, N-(3-methoxy-4-(1H-pyrazol-4-yl)phenyl)-2-((2-methoxyethyl)amino)-2-(3-methoxyphenyl)acetamide] | 78 nM
25 | 65 nM | 1.2 nM | – | CN[C@@H](C(=O)Nc1ccc(-c2cn[nH]c2)cc1)c1ccc(Cl)cc1 [Example 65, (R)—N-(4-(1H-pyrazol-4-yl)phenyl)-2-(4-chlorophenyl)-2-(methylamino)acetamide] | 51 nM
26 | 647 nM | 14 nM | – | CNC(C(=O)Nc1ccc(-c2cn[nH]c2)cc1)c1ccnc(OC)c1 (stereo not drawn) [Example 29, N-(4-(1H-pyrazol-4-yl)phenyl)-2-(2-methoxypyridin-4-yl)-2-(methylamino)acetamide] | 146 nM
